Laboratory results published in patent publication US20240376097A1, “BCL-2 Inhibitor” (BeiGene Ltd., priority 2020, published 2024).

Tests used:
Assay type in all cases: binding
[1] = system: recombinant human Bcl-2-G101V protein; test: Bcl-2-G101V TR-FRET Assay; settings: ratio of biochemical IC50 Bcl-2 G101V / Bcl-2 WT
Method: (§1) Biological Example: Bcl-2-G101V TR-FRET Assay
(§2) […]. The TR-FRET signals (ex337 nm, em490 nm/520 nm) were read on BMG PHERAstar FSX instrument. The inhibition percentage of Bcl-2-G101V interaction with its ligand in presence of increasing concentrations of compounds was calculated based on the ratio of fluorescence at 490 nm to that at 520 nm. The IC50 for each compound was derived from fitting the data to the four-parameter logistic equation by Graphpad Prism software or Dotmatics.

[2] = biological target: recombinant human Bcl-2-G101V protein (Homo sapiens (Human), UniProt P10415, G101V); test: Bcl-2-G101V TR-FRET Assay; settings: Bcl-2 G101V mutant, TR-FRET; read-out: Biochemical assay (IC50, nM) Bcl-2 G101V
Method: as §1, §2

[3] = biological target: Recombinant human Bcl-2 protein (Homo sapiens (Human), UniProt P10415); test: Bcl-2 TR-FRET Assay; settings: Bcl-2 wild type, TR-FRET; read-out: Biochemical assay (IC50, nM) Bcl-2 WT
Method: Biological Example: Bcl-2 TR-FRET Assay
Compounds disclosed herein were tested for blocking of Bcl-2 protein with its ligand in an assay based on Time-Resolved Fluorescence Resonance Energy Transfer (TR-FRET) methodology. Recombinant human 0.05 nM Bcl-2 protein was pre-incubated with a serial dilution of compounds disclosed herein (top final concentration is 1 uM or 0.1 uM or 0.02 uM or 0.01 uM, 10 points) at room temperature for 0.5 hour in an assay buffer containing 20 mM potassium phosphate buffer, pH 7.5, 50 mM NaCl. 1 mM EDTA, 0.05% Tween-20, 0.01% BSA. Then the FITC labeled Bak peptide Ac-GQVGRQLAIIGDK(FITC)INR-amide (0.5 nM) and MAb Anti 6His Tb cryptate Gold were added to plate and further incubated at room temperature for 1 hour. The TR-FRET signals (337 nm-520 nm-490 nm) were read on BMG PHERAstar FSX instrument. The inhibition percentage of Bcl-2 interaction with its ligand in presence of increasing concentrations of compounds was calculated based on the TR-FRET signals. The IC50 for each compound was derived from fitting the data to the four-parameter logistic equation by Graphpad Prism software or Dotmatics.

SMILES: CC(C)c1ccccc1C1CN(C2CCOC2)CCN1C1CC2(CCN(c3ccc(C(=O)NS(=O)(=O)c4ccc(NC[C@H]5CC[C@](C)(O)CC5)c([N+](=O)[O-])c4)c(Oc4cnc5[nH]ccc5c4)c3)CC2)C1 (stereo partly drawn) [Example 8, 2-((1H-pyrrolo[2,3-b]pyridin-5-yl)oxy)-N-((4-((((1r,4r)-4-hydroxy-4-methylcyclohexyl)methyl)amino)-3-nitrophenyl)sulfonyl)-4-(2-(2-(2-isopropylphenyl)-4-(tetrahydrofuran-3-yl)piperazin-1-yl)-7-azaspiro[3.5]nonan-7-yl)benzamide]
- Ratio of Bcl-2 G101V/WT [1]: 16.0
- IC50 [2]: 0.32 nM
- IC50 [3]: 0.02 nM

SMILES: COc1ccc(CN2CCN(C3CC4(CCN(c5ccc(C(=O)NS(=O)(=O)c6ccc(NC[C@H]7CC[C@](C)(O)CC7)c([N+](=O)[O-])c6)c(Oc6cnc7[nH]ccc7c6)c5)CC4)C3)C(c3ccccc3CC(C)C)C2)cc1 (stereo partly drawn) [Example 35, 2-((1H-pyrrolo[2,3-b]pyridin-5-yl)oxy)-N-((4-((((1r,4r)-4-hydroxy-4-methylcyclohexyl)methyl)amino)-3-nitrophenyl)sulfonyl)-4-(2-(2-(2-isobutylphenyl)-4-(4-methoxybenzyl)piperazin-1-yl)-7-azaspiro[3.5]nonan-7-yl) benzamide]
- Ratio of Bcl-2 G101V/WT [1]: 74.1
- IC50 [2]: 163 nM
- IC50 [3]: 2.2 nM

SMILES: COc1ccc(CN2CCN(C3CC4(CCN(c5ccc(C(=O)NS(=O)(=O)c6ccc(NC[C@H]7CC[C@](C)(O)CC7)c([N+](=O)[O-])c6)c(Oc6cnc7[nH]ccc7c6)c5)CC4)C3)C(c3ccccc3C3CCCC3)C2)cc1 (stereo partly drawn) [Example 36, 2-((1H-pyrrolo[2,3-b]pyridin-5-yl)oxy)-4-(2-(2-(2-cyclopentylphenyl)-4-(4-methoxybenzyl)piperazin-1-yl)-7-azaspiro[3.5]nonan-7-yl)-N-((4-((((1r,4r)-4-hydroxy-4-methylcyclohexyl)methyl)amino)-3-nitrophenyl)sulfonyl)benzamide]
- Ratio of Bcl-2 G101V/WT [1]: 27.6
- IC50 [2]: 16 nM
- IC50 [3]: 0.58 nM

SMILES: CC(C)c1ccccc1C1CN(Cc2cccc3c2CCCC3)CCN1C1CC2(CCN(c3ccc(C(=O)NS(=O)(=O)c4ccc(NC[C@H]5CC[C@](C)(O)CC5)c([N+](=O)[O-])c4)c(Oc4cnc5[nH]ccc5c4)c3)CC2)C1 (stereo partly drawn) [Example 55, 2-((1H-pyrrolo[2,3-b]pyridin-5-yl)oxy)-N-((4-((((1r,4r)-4-hydroxy-4-methylcyclohexyl)methyl)amino)-3-nitrophenyl)sulfonyl)-4-(2-(2-(2-isopropylphenyl)-4-((5,6,7,8-tetrahydronaphthalen-1-yl)methyl)piperazin-1-yl)-7-azaspiro[3.5]nonan-7-yl)benzamide]
- Ratio of Bcl-2 G101V/WT [1]: 3.2
- IC50 [2]: 12 nM
- IC50 [3]: 3.8 nM

SMILES: CC(C)c1ccccc1C1CN(Cc2cccc3c2CCCC3)CCN1C1CC2(CCN(c3ccc(C(=O)NS(=O)(=O)c4ccc(NCC5CCOCC5)c([N+](=O)[O-])c4)c(Oc4cnc5[nH]ccc5c4)c3)CC2)C1 (stereo not drawn) [Example 56, 2-((1H-pyrrolo[2,3-b]pyridin-5-yl)oxy)-4-(2-(2-(2-isopropylphenyl)-4-((5,6,7,8-tetrahydronaphthalen-1-yl)methyl)piperazin-1-yl)-7-azaspiro[3.5]nonan-7-yl)-N-((3-nitro-4-(((tetrahydro-2H-pyran-4-yl)methyl)amino)phenyl)sulfonyl) benzamide]
- Ratio of Bcl-2 G101V/WT [1]: 4.8
- IC50 [2]: 13 nM
- IC50 [3]: 2.7 nM

SMILES: CC#CC(c1ccccc1)N1CCN(C2CC3(CCN(c4ccc(C(=O)NS(=O)(=O)c5ccc(NC[C@H]6CC[C@](C)(O)CC6)c([N+](=O)[O-])c5)c(Oc5cnc6[nH]ccc6c5)c4)CC3)C2)C(c2ccccc2C(C)C)C1 (stereo partly drawn) [Example 63]
- Ratio of Bcl-2 G101V/WT [1]: 14.3
- IC50 [2]: 20 nM
- IC50 [3]: 1.4 nM

SMILES: CC(C)c1ccccc1C1CN(Cc2ccc(Cl)c(Cl)c2)CCN1C1CC2(CCN(c3ccc(C(=O)NS(=O)(=O)c4ccc(NC[C@H]5CC[C@](C)(O)CC5)c([N+](=O)[O-])c4)c(Oc4cnc5[nH]ccc5c4)c3)CC2)C1 (stereo partly drawn) [Example 117, 2-((1H-pyrrolo[2,3-b]pyridin-5-yl)oxy)-4-(2-(4-(3,4-dichlorobenzyl)-2-(2-isopropylphenyl)piperazin-1-yl)-7-azaspiro[3.5]nonan-7-yl)-N-((4-((((1r,4r)-4-hydroxy-4-methylcyclohexyl)methyl)amino)-3-nitrophenyl)sulfonyl)benzamide]
- Ratio of Bcl-2 G101V/WT [1]: 4.4
- IC50 [2]: 7.1 nM
- IC50 [3]: 1.6 nM

SMILES: CC(C)c1ccccc1C1CN(Cc2cccc3c2OC(F)(F)O3)CCN1C1CC2(CCN(c3ccc(C(=O)NS(=O)(=O)c4ccc(NC[C@H]5CC[C@](C)(O)CC5)c([N+](=O)[O-])c4)c(Oc4cnc5[nH]ccc5c4)c3)CC2)C1 (stereo partly drawn) [Example 129, 2-((1H-pyrrolo[2,3-b]pyridin-5-yl)oxy)-4-(2-(4-((2,2-difluorobenzo [d][1,3]dioxol-4-yl)methyl)-2-(2-isopropylphenyl)piperazin-1-yl)-7-azaspiro[3.5]nonan-7-yl)-N-((4-((((1r,4r)-4-hydroxy-4-methylcyclohexyl)methyl)amino)-3-nitrophenyl)sulfonyl)benzamide]
- Ratio of Bcl-2 G101V/WT [1]: 4.4
- IC50 [2]: 7.8 nM
- IC50 [3]: 1.8 nM

SMILES: COc1ccc(N2CCCC(N3CCN(C4CC5(CCN(c6ccc(C(=O)NS(=O)(=O)c7ccc(NC[C@H]8CC[C@](C)(O)CC8)c([N+](=O)[O-])c7)c(Oc7cnc8[nH]ccc8c7)c6)CC5)C4)C(c4ccccc4C(C)C)C3)C2)cc1 (stereo partly drawn) [Example 139, 2-((1H-pyrrolo[2,3-b]pyridin-5-yl)oxy)-N-((4-((((1r,4r)-4-hydroxy-4-methylcyclohexyl)methyl)amino)-3-nitrophenyl)sulfonyl)-4-(2-(2-(2-isopropylphenyl)-4-(1-(4-methoxyphenyl)piperidin-3-yl)piperazin-1-yl)-7-azaspiro[3.5]nonan-7-yl)benzamide]
- Ratio of Bcl-2 G101V/WT [1]: 8.7
- IC50 [2]: 5.6 nM
- IC50 [3]: 0.65 nM

SMILES: COc1cc(CN2CCN(C3CC4(CCN(c5ccc(C(=O)NS(=O)(=O)c6ccc(NC[C@H]7CC[C@](C)(O)CC7)c([N+](=O)[O-])c6)c(Oc6cnc7[nH]ccc7c6)c5)CC4)C3)C(c3ccccc3C(C)C)C2)cc(C(F)(F)F)c1 (stereo partly drawn) [Example 227, 2-((1H-pyrrolo[2,3-b]pyridin-5-yl)oxy)-N-((4-((((1r,4r)-4-hydroxy-4-methylcyclohexyl)methyl)amino)-3-nitrophenyl)sulfonyl)-4-(2-(2-(2-isopropylphenyl)-4-(3-methoxy-5-(trifluoromethyl)benzyl)piperazin-1-yl)-7-azaspiro[3.5]nonan-7-yl) benzamide]
- Ratio of Bcl-2 G101V/WT [1]: 3.2
- IC50 [2]: 6.4 nM
- IC50 [3]: 2 nM

SMILES: COc1ccc(CN2CCN(C3CC4(CCN(c5ccc(C(=O)NS(=O)(=O)c6ccc(NC[C@H]7CC[C@](C)(O)CC7)c([N+](=O)[O-])c6)c(Oc6cnc7[nH]ccc7c6)c5)CC4)C3)C(c3cc(Cl)ccc3C(C)C)C2)cc1 (stereo partly drawn) [Example 247, 2-((1H-pyrrolo[2,3-b]pyridin-5-yl)oxy)-4-(2-(2-(5-chloro-2-isopropylphenyl)-4-(4-methoxybenzyl)piperazin-1-yl)-7-azaspiro[3.5]nonan-7-yl)-N-((4-((((1r,4r)-4-hydroxy-4-methylcyclohexyl)methyl)amino)-3-nitrophenyl)sulfonyl)benzamide]
- Ratio of Bcl-2 G101V/WT [1]: 4.2
- IC50 [2]: 3.3 nM
- IC50 [3]: 0.8 nM

SMILES: COc1cc(CN2CCN(C3CC4(CCN(c5ccc(C(=O)NS(=O)(=O)c6ccc(NC[C@H]7CC[C@](C)(O)CC7)c([N+](=O)[O-])c6)c(Oc6cnc7[nH]cc(F)c7c6)c5)CC4)C3)[C@H](c3ccccc3C(C)C)C2)ccc1C(F)(F)F [Example 279]
- Ratio of Bcl-2 G101V/WT [1]: 3.2
- IC50 [2]: 6.3 nM
- IC50 [3]: 2 nM

SMILES: COc1cc(CN2CCN(C3CC4(C3)CN(c3ccc(C(=O)NS(=O)(=O)c5ccc(NC[C@H]6CC[C@](C)(O)CC6)c([N+](=O)[O-])c5)c(Oc5cnc6[nH]cc(F)c6c5)c3)C4)[C@H](c3ccccc3C(C)C)C2)ccc1C(F)(F)F [Example 289, 2-((3-fluoro-1H-pyrrolo[2,3-b]pyridin-5-yl)oxy)-N-((4-((((1r,4r)-4-hydroxy-4-methylcyclohexyl)methyl)amino)-3-nitrophenyl)sulfonyl)-4-(6-((R)-2-(2-isopropylphenyl)-4-(3-methoxy-4-(trifluoromethyl)benzyl)piperazin-1-yl)-2-azaspiro[3.3]heptan-2-yl) benzamide]
- Ratio of Bcl-2 G101V/WT [1]: 2.3
- IC50 [2]: 4 nM
- IC50 [3]: 1.7 nM

SMILES: COc1cc(CN2CCN(C3CC4(CCN(c5ccc(C(=O)NS(=O)(=O)c6ccc(NC[C@H]7CC[C@](C)(O)CC7)c([N+](=O)[O-])c6)c(Oc6cnc7[nH]ccc7c6)c5)CC4)C3)[C@H](c3ccccc3C(C)C)C2)ccc1CC(C)C [Example 293]
- Ratio of Bcl-2 G101V/WT [1]: 3.4
- IC50 [2]: 11 nM
- IC50 [3]: 3.2 nM
